This note sets out measurements from patent publication US20020009482A1, “Proenergetic food supplement based on NADH, octocosanol and vitamin E” (priority 2000, published 2002).

Molecules are shown by their SMILES.

The nature of this series: Test for the stabilizing activity of Vitamin E on NADH (acid degradation in water at pH 4, 32° C.). It is filed as physicochemical. Particulars: within 20 minutes. How it is done:
TEST FOR THE STABILIZING ACTIVITY OF VITAMIN E ON NADH Two beakers are prepared containing 50 g of water at a pH 4 and a constant temperature of 32° C. 10 mg of NADH are dissolved in the first beaker and agitate. The effect of the acidity deactivates the NADH, which splits up into NAD+H. Within 20 minutes, 9.5 mg of NADH are split-up, while 0.5 mg remain unchanged. In a second beaker […] of NADH and 5 mg of Vitamin E are dissolved. The effect of the acidity deactivates the NADH, which splits up into NAD+H. Within 20 minutes, 7.5 mg of NADH are split-up, while 2.5 mg of NADH remain unchanged. The parameters of pH 4 and 32° C. for a duration of 20 minutes has been chosen as the food supplement is to be assumed in the morning on an empty stomach, 30 minutes before breakfast. This leads the tablets to easily pass the physiological stomach barrier in 20 minutes, so as reach the first portion of the intestine, where it can be absorbed and enter the blood circulating system.

Where [1] appears, read: 20 mg NADH with 5 mg Vitamin E in 50 g water.

For the compound `NC(=O)C1=CN([C@@H]2O[C@H](COP(=O)(O)OP(=O)(O)OC[C@H]3O[C@@H](n4cnc5c(N)ncnc54)[C@H](O)[C@@H]3O)[C@@H](O)[C@H]2O)C=CC1` [NADH, nicotinamide adenine dinucleotide in a reduced form], for the setting “10 mg NADH alone in 50 g water”, the NADH remaining unchanged was 0.5 mg and the “NADH split-up (into NAD+H)” value was determined as 9.5 mg. Moreover, under setting [1], the NADH remaining unchanged is recorded as 2.5 mg and the “NADH split-up (into NAD+H)” value stood at 7.5 mg.
